Experimental data reported in PubChem BioAssay (NCI).
Values joined by “and” are separate entries in the source; they are usually repeats but may differ in a detail not shown here. Equal entries are not always repeated.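 Five concentrations, 48 hours, 96-well plates. Abbreviation: GI50, concentration required for 50% inhibition of growth. TGI: total growth inhibition.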

Assays:
Assay in all cases: NCI-60 cell line screen, 48 h
BT-549 breast = system: BT-549 breast
NCI-H522 lung = system: NCI-H522 lung
U251 CNS = system: U251 CNS
HCT-116 colon = system: HCT-116 colon
UACC-257 melanoma = system: UACC-257 melanoma
NCI/ADR-RES ovarian = system: NCI/ADR-RES ovarian
SW-620 colon = system: SW-620 colon
SNB-19 CNS = system: SNB-19 CNS
SK-OV-3 ovarian = system: SK-OV-3 ovarian
K-562 leukemia = system: K-562 leukemia

| Structure (SMILES) | TGI (BT-549 breast) [µM] | TGI (NCI-H522 lung) | TGI (U251 CNS) [µM] | TGI (HCT-116 colon) [µM] | TGI (UACC-257 melanoma) [µM] | TGI (NCI/ADR-RES ovarian) | TGI (SW-620 colon) | TGI (SNB-19 CNS) [µM] | TGI (SK-OV-3 ovarian) | TGI (K-562 leukemia) [µM] | GI50 (BT-549 breast) [µM] | GI50 (NCI-H522 lung) [µM] | GI50 (U251 CNS) [µM] | GI50 (HCT-116 colon) [µM] | GI50 (UACC-257 melanoma) [µM] | GI50 (NCI/ADR-RES ovarian) [µM] | GI50 (SW-620 colon) [µM] | GI50 (SNB-19 CNS) [µM] | GI50 (SK-OV-3 ovarian) [µM] | GI50 (K-562 leukemia) [µM] |
| --- | --- | --- | --- | --- | --- | --- | --- | --- | --- | --- | --- | --- | --- | --- | --- | --- | --- | --- | --- | --- |
| NC(Cc1c[nH]c2ccc([N+](=O)[O-])cc12)C(=O)O (configuration not stated) | > 100 | > 100 µM | > 100 | > 100 | > 100 | > 100 µM | > 100 µM | > 100 | > 100 µM | > 100 | – | – | – | – | – | – | – | – | – | – |
| CC(=O)Nc1cc2cc(NS(=O)(=O)c3ccc(Cl)c(Cl)c3)ccc2oc1=O | > 100 | 63.6 µM | 45.5 | 82.2 | > 100 | > 100 µM | > 100 µM | > 100 | – | > 100 | – | – | – | – | – | – | – | – | – | – |
| Cn1cc(C2=C(c3cn(CCCN)c4ccccc34)C(=O)NC2=O)c2ccccc21 | 11.5 | 9.13 µM | 11.5 | 10.1 | 9.05 | > 25 µM | 9.37 µM | 24.9 | > 25 µM | 14.6 | 5.07 | 4.12 | 5.01 | 3.48 | 4.9 | 10.8 | 4.38 | 7.89 | 5.58 | 4.29 |
| CS(=O)(=O)c1cccc(Nc2ncc3cc(-c4ccccc4Cl)ccc3n2)c1 | 27.8 | 2.78 µM | > 33.3 | 4.51 | 19.3 | 17.7 µM | > 33.3 µM | > 33.3 | 2.99 µM | > 33.3 | 2.11 | 0.773 | 1.68 | 1.01 | 3.24 | 1.24 | 1.78 | 2.46 | 0.883 | 0.165 |
| COC1C=COC2(C)Oc3c(C)c(O)c4c(O)c(c(C5SCCS5)c(O)c4c3C2=O)NC(=O)/C(C)=C\C=CC(C)C(O)C(C)C(O)C(C)C(OC(C)=O)C1C (configuration not stated) | 16.2 | 24.2 µM | 14.5 | 48.7 | 17.8 | 34.6 µM | 20.1 µM | 17.7 | 27.7 µM | – | – | – | – | – | – | – | – | – | – | – |
| O=C(c1ccc([N+](=O)[O-])cc1)C(Br)C(Br)c1ccnc2ccccc12 (configuration not stated) | 20 | 6.32 µM | 4.13 | 4.04 | 14.6 | > 71.7 µM | 5.61 µM | 30.8 | 32.1 µM | > 33.3 | – | – | – | – | – | – | – | – | – | – |
| O=C(NCCOCCOCCOCCNC(=O)c1cc2c(o1)C(=O)c1ccccc1C2=O)NC12CC3CC(CC(C3)C1)C2 | 3.25 | 4.95 µM | 5 | 8.95 | 2.83 | 10.1 µM | 7.26 µM | 8.03 | 7.43 µM | 8.91 | 1.5 | 1.78 | 2.04 | 2.4 | 1.36 | 2.96 | 2.35 | 2.06 | 2.84 | 1.98 |
| CC(=O)/C(Br)=C/c1ccc(Br)o1 | 18.6 | 8.14 µM | 27.8 | 5.89 | 19.2 | 38.3 µM | 4.87 µM | > 59.6 | > 65.8 µM | > 36.5 | 5.94 | 2.78 | 14.4 | 2.13 | 6.05 | 7.88 | 2.1 | 26 | 26.8 | 2.99 |
| Oc1[nH]c2ccccc2c1/C=c1/ccc2c(c1)N=C(c1ccc(C(F)(F)F)cc1)N=2 | 9.25 | 13.5 µM | 12.8 | 12.3 | 21.5 | 13.1 µM | 5.55 µM | 21.1 | 25 µM | 3.46 | 2.04 | 1.97 | 2.83 | 1.37 | 7.4 | 3.98 | 1.92 | 5.38 | 12.1 | 1.41 |
| c1ccc(Oc2ccc(Nc3ncc(-c4ccccc4)o3)cc2)cc1 | > 25 | > 25 µM | > 25 | > 25 | > 25 | > 25 µM | > 25 µM | > 25 | > 25 µM | > 25 | > 25 | > 25 | > 25 | > 25 | > 25 | > 25 | > 25 | > 25 | > 25 | > 25 |
| COc1cc(-c2nc3ccccc3o2)cc(CN2CCCCC2)c1O | 9.16 | 14.2 µM | 9.54 | 35.4 | 5.51 | 76.4 µM | 8.13 µM | 26.9 | > 74.1 µM | > 100 | 2.45 | 3.26 | 1.84 | 4.27 | 2.06 | 5.79 | 1.92 | 5.44 | 30.2 | 8.18 |
| COc1cc([N+](=O)[O-])c(S(=O)(=O)O)cc1-n1nc(C(=O)Nc2ccccc2)n[n+]1-c1cc(S(=O)(=O)[O-])c([N+](=O)[O-])cc1OC | > 100 | > 100 µM | > 100 | > 100 | > 100 | > 100 µM | > 100 µM | > 100 | > 100 µM | > 100 | – | – | – | – | – | – | – | – | – | – |
| C=C1C(=O)O[C@H]2[C@H]1CC/C(COC(=O)/C=C\C(=O)NCc1ccc(Cn3c(=O)sn(CCI)c3=O)cc1)=C\CC[C@@]1(C)O[C@@H]21 | 22.6 | 2.93 µM | 20.2 | 4.75 | 5.97 | > 100 µM | 3.75 µM | 24.7 | 31.2 µM | > 100 | 10.7 | 1.48 | 7.63 | 1.93 | 2.07 | 10.2 | 1.92 | 11.4 | 17.4 | 2.45 |
| O=C1NC2(CCCCC2)C(=O)N1CCN(CCCl)CCCl | > 25 | > 25 µM and 163 µM | > 250 | > 250 | > 250 | > 25 µM and 184 µM | > 25 µM and 150 µM | > 250 | > 25 µM and 250 µM | > 250 | – | > 25 | > 25 | > 25 | > 25 | > 25 | > 25 | > 25 | > 25 | > 25 |
